According to PubChem BioAssay (NCI):
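1) Cells in 96-well plates. 2) Compound, 48 h, 5 concentrations. 3) Linear interpolation between surrounding doses. 4) Unreached endpoint = highest concentration. TGI denotes the concentration required for complete inhibition of growth.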

system: HS 578T breast; assay: DTP human tumour cell line panel, 48 h

SMILES | TGI
Cc1ccc(N=Nc2c(O)c(C(=O)O)cc3ccccc23)c(S(=O)(=O)O)c1 | > 100 µM
COc1cc(S(=O)(=O)Nc2ccc(-c3csc(N4C(=O)C(C)SC4c4cccc(Oc5ccccc5)c4)n3)cc2)ccc1Cl (stereo not drawn) | > 100 µM
O=c1cc(NNc2ccc(F)cc2)[nH]c(=O)[nH]1 | 90.8 µM
CC(CCc1ccccc1)NCC(O)n1c(/N=N/N(C)C)nc2c1c(=O)n(C)c(=O)n2C (stereo not drawn) | > 100 µM
O=C1CC(Cl)c2c1csc2Br (stereo not drawn) | 47.5 µM

system: NCI-H460 lung; assay: DTP human tumour cell line panel, 48 h

SMILES | TGI
O=c1cc(NNc2ccc(F)cc2)[nH]c(=O)[nH]1 | 38.7 µM
CC(CCc1ccccc1)NCC(O)n1c(/N=N/N(C)C)nc2c1c(=O)n(C)c(=O)n2C (stereo not drawn) | > 100 µM
O=C1CC(Cl)c2c1csc2Br (stereo not drawn) | 42.5 µM

system: MDA-MB-435; assay: DTP human tumour cell line panel, 48 h

SMILES | TGI
Cc1ccc(N=Nc2c(O)c(C(=O)O)cc3ccccc23)c(S(=O)(=O)O)c1 | > 100 µM
COc1cc(S(=O)(=O)Nc2ccc(-c3csc(N4C(=O)C(C)SC4c4cccc(Oc5ccccc5)c4)n3)cc2)ccc1Cl (stereo not drawn) | > 100 µM
CC(CCc1ccccc1)NCC(O)n1c(/N=N/N(C)C)nc2c1c(=O)n(C)c(=O)n2C (stereo not drawn) | > 100 µM
O=C1CC(Cl)c2c1csc2Br (stereo not drawn) | 29.1 µM

system: ACHN renal; assay: DTP human tumour cell line panel, 48 h

SMILES | TGI
Cc1ccc(N=Nc2c(O)c(C(=O)O)cc3ccccc23)c(S(=O)(=O)O)c1 | > 100 µM
COc1cc(S(=O)(=O)Nc2ccc(-c3csc(N4C(=O)C(C)SC4c4cccc(Oc5ccccc5)c4)n3)cc2)ccc1Cl (stereo not drawn) | > 100 µM
O=c1cc(NNc2ccc(F)cc2)[nH]c(=O)[nH]1 | 31.7 µM
CC(CCc1ccccc1)NCC(O)n1c(/N=N/N(C)C)nc2c1c(=O)n(C)c(=O)n2C (stereo not drawn) | > 100 µM
O=C1CC(Cl)c2c1csc2Br (stereo not drawn) | 29 µM

system: NCI/ADR-RES ovarian; assay: DTP human tumour cell line panel, 48 h

SMILES | TGI
Cc1ccc(N=Nc2c(O)c(C(=O)O)cc3ccccc23)c(S(=O)(=O)O)c1 | > 100 µM
COc1cc(S(=O)(=O)Nc2ccc(-c3csc(N4C(=O)C(C)SC4c4cccc(Oc5ccccc5)c4)n3)cc2)ccc1Cl (stereo not drawn) | > 100 µM
O=c1cc(NNc2ccc(F)cc2)[nH]c(=O)[nH]1 | 88.7 µM
CC(CCc1ccccc1)NCC(O)n1c(/N=N/N(C)C)nc2c1c(=O)n(C)c(=O)n2C (stereo not drawn) | > 100 µM
O=C1CC(Cl)c2c1csc2Br (stereo not drawn) | 47 µM

system: KM12 colon; assay: DTP human tumour cell line panel, 48 h

SMILES | TGI
Cc1ccc(N=Nc2c(O)c(C(=O)O)cc3ccccc23)c(S(=O)(=O)O)c1 | > 100 µM
COc1cc(S(=O)(=O)Nc2ccc(-c3csc(N4C(=O)C(C)SC4c4cccc(Oc5ccccc5)c4)n3)cc2)ccc1Cl (stereo not drawn) | > 100 µM
O=c1cc(NNc2ccc(F)cc2)[nH]c(=O)[nH]1 | 24 µM
CC(CCc1ccccc1)NCC(O)n1c(/N=N/N(C)C)nc2c1c(=O)n(C)c(=O)n2C (stereo not drawn) | > 100 µM
O=C1CC(Cl)c2c1csc2Br (stereo not drawn) | 28.5 µM

system: PC-3 prostate; assay: DTP human tumour cell line panel, 48 h

SMILES | TGI
Cc1ccc(N=Nc2c(O)c(C(=O)O)cc3ccccc23)c(S(=O)(=O)O)c1 | > 100 µM
COc1cc(S(=O)(=O)Nc2ccc(-c3csc(N4C(=O)C(C)SC4c4cccc(Oc5ccccc5)c4)n3)cc2)ccc1Cl (stereo not drawn) | > 100 µM
O=c1cc(NNc2ccc(F)cc2)[nH]c(=O)[nH]1 | 32.5 µM
CC(CCc1ccccc1)NCC(O)n1c(/N=N/N(C)C)nc2c1c(=O)n(C)c(=O)n2C (stereo not drawn) | > 100 µM
O=C1CC(Cl)c2c1csc2Br (stereo not drawn) | 25.4 µM

system: IGROV1 ovarian; assay: DTP human tumour cell line panel, 48 h

SMILES | TGI
Cc1ccc(N=Nc2c(O)c(C(=O)O)cc3ccccc23)c(S(=O)(=O)O)c1 | > 100 µM
COc1cc(S(=O)(=O)Nc2ccc(-c3csc(N4C(=O)C(C)SC4c4cccc(Oc5ccccc5)c4)n3)cc2)ccc1Cl (stereo not drawn) | > 100 µM
O=c1cc(NNc2ccc(F)cc2)[nH]c(=O)[nH]1 | 30.2 µM
CC(CCc1ccccc1)NCC(O)n1c(/N=N/N(C)C)nc2c1c(=O)n(C)c(=O)n2C (stereo not drawn) | > 100 µM
O=C1CC(Cl)c2c1csc2Br (stereo not drawn) | 30.8 µM

system: NCI-H226 lung; assay: DTP human tumour cell line panel, 48 h

SMILES | TGI
Cc1ccc(N=Nc2c(O)c(C(=O)O)cc3ccccc23)c(S(=O)(=O)O)c1 | > 100 µM
COc1cc(S(=O)(=O)Nc2ccc(-c3csc(N4C(=O)C(C)SC4c4cccc(Oc5ccccc5)c4)n3)cc2)ccc1Cl (stereo not drawn) | > 100 µM
O=c1cc(NNc2ccc(F)cc2)[nH]c(=O)[nH]1 | 57.4 µM
CC(CCc1ccccc1)NCC(O)n1c(/N=N/N(C)C)nc2c1c(=O)n(C)c(=O)n2C (stereo not drawn) | > 100 µM
O=C1CC(Cl)c2c1csc2Br (stereo not drawn) | 76.9 µM

system: SK-MEL-2 melanoma; assay: DTP human tumour cell line panel, 48 h

SMILES | TGI
Cc1ccc(N=Nc2c(O)c(C(=O)O)cc3ccccc23)c(S(=O)(=O)O)c1 | > 100 µM
COc1cc(S(=O)(=O)Nc2ccc(-c3csc(N4C(=O)C(C)SC4c4cccc(Oc5ccccc5)c4)n3)cc2)ccc1Cl (stereo not drawn) | > 100 µM
O=c1cc(NNc2ccc(F)cc2)[nH]c(=O)[nH]1 | 45.6 µM
CC(CCc1ccccc1)NCC(O)n1c(/N=N/N(C)C)nc2c1c(=O)n(C)c(=O)n2C (stereo not drawn) | > 100 µM
O=C1CC(Cl)c2c1csc2Br (stereo not drawn) | 29.8 µM

system: SW-620 colon; assay: DTP human tumour cell line panel, 48 h

SMILES | TGI
Cc1ccc(N=Nc2c(O)c(C(=O)O)cc3ccccc23)c(S(=O)(=O)O)c1 | > 100 µM
COc1cc(S(=O)(=O)Nc2ccc(-c3csc(N4C(=O)C(C)SC4c4cccc(Oc5ccccc5)c4)n3)cc2)ccc1Cl (stereo not drawn) | > 100 µM
O=c1cc(NNc2ccc(F)cc2)[nH]c(=O)[nH]1 | 33.1 µM
CC(CCc1ccccc1)NCC(O)n1c(/N=N/N(C)C)nc2c1c(=O)n(C)c(=O)n2C (stereo not drawn) | > 100 µM
O=C1CC(Cl)c2c1csc2Br (stereo not drawn) | 12.6 µM

system: M14 melanoma; assay: DTP human tumour cell line panel, 48 h

SMILES | TGI
Cc1ccc(N=Nc2c(O)c(C(=O)O)cc3ccccc23)c(S(=O)(=O)O)c1 | > 100 µM
COc1cc(S(=O)(=O)Nc2ccc(-c3csc(N4C(=O)C(C)SC4c4cccc(Oc5ccccc5)c4)n3)cc2)ccc1Cl (stereo not drawn) | > 100 µM
O=c1cc(NNc2ccc(F)cc2)[nH]c(=O)[nH]1 | 21 µM
CC(CCc1ccccc1)NCC(O)n1c(/N=N/N(C)C)nc2c1c(=O)n(C)c(=O)n2C (stereo not drawn) | > 100 µM
O=C1CC(Cl)c2c1csc2Br (stereo not drawn) | 27.3 µM

system: DU-145 prostate; assay: DTP human tumour cell line panel, 48 h

SMILES | TGI
Cc1ccc(N=Nc2c(O)c(C(=O)O)cc3ccccc23)c(S(=O)(=O)O)c1 | > 100 µM
COc1cc(S(=O)(=O)Nc2ccc(-c3csc(N4C(=O)C(C)SC4c4cccc(Oc5ccccc5)c4)n3)cc2)ccc1Cl (stereo not drawn) | > 100 µM
O=c1cc(NNc2ccc(F)cc2)[nH]c(=O)[nH]1 | > 100 µM
O=C1CC(Cl)c2c1csc2Br (stereo not drawn) | > 100 µM

system: SR leukemia; assay: DTP human tumour cell line panel, 48 h

SMILES | TGI
Cc1ccc(N=Nc2c(O)c(C(=O)O)cc3ccccc23)c(S(=O)(=O)O)c1 | > 100 µM
COc1cc(S(=O)(=O)Nc2ccc(-c3csc(N4C(=O)C(C)SC4c4cccc(Oc5ccccc5)c4)n3)cc2)ccc1Cl (stereo not drawn) | > 100 µM
O=c1cc(NNc2ccc(F)cc2)[nH]c(=O)[nH]1 | > 100 µM
CC(CCc1ccccc1)NCC(O)n1c(/N=N/N(C)C)nc2c1c(=O)n(C)c(=O)n2C (stereo not drawn) | > 100 µM
O=C1CC(Cl)c2c1csc2Br (stereo not drawn) | 22.3 µM

system: HOP-92 NSCLC; assay: DTP human tumour cell line panel, 48 h

SMILES | TGI
Cc1ccc(N=Nc2c(O)c(C(=O)O)cc3ccccc23)c(S(=O)(=O)O)c1 | > 100 µM
COc1cc(S(=O)(=O)Nc2ccc(-c3csc(N4C(=O)C(C)SC4c4cccc(Oc5ccccc5)c4)n3)cc2)ccc1Cl (stereo not drawn) | > 100 µM
